One assay deals with T1, Human HDAC2 (Homo sapiens, UniProt Q92769).
T1 construct: full-length with a C-terminal His-tag, MW=56 kDa; His-tag (C); made in house; host or cells: baculovirus expression system
In words: Biochemical HDAC enzymatic assay, HDAC2. Conditions: incubation time 120 min. Here is the method:
(§1) Incubation time for HDAC1/2 is 120 min, and 10 min for other HDACs.
Human HDAC2 (GenBank Accession No. NM_001527), full-length with a C-terminal His-tag, MW=56 kDa, was expressed in a baculovirus expression system.
(§2) • I. Compound handling: Testing compounds were dissolved in 100% DMSO to a specific concentration. The serial dilution was conducted by epMotion 5070 in DMSO. • II. HDAC reaction buffer: 50 mM Tris-HCl, pH8.0, 137 mM NaCl, 2.7 mM KCl, and 1 mM MgCl2, Added fresh: 1 mg/ml BSA, 1% DMSO. • III. Substrate: Fluorogenic HDAC General Substrate for HDAC1, 2, 3, 6, 10, 11 ans Sirt1, 2 and 3: Arg-His-Lys-Lys(Ac); HDAC8 only substrate: Arg-His-Lys(Ac)-Lys(Ac); Class2A Substrate (HDAC4, 5, 7 and 9): Acetyl-Lys(trifluoroacetyl)-AMC; Sirt5 substrate: Ac-Lys(succinyl)-AMC. • IV. General Reaction Procedure: (Standard IC50 determination) • a. Delivered 2× enzyme in wells of reaction plate except No Enzyme (No En) control wells. Add buffer in No En wells. • b. Delivered compounds in 100% DMSO into the enzyme mixture by Acoustic technology (Echo550; nanoliter range). Spin down and pre-incubation. • c. Delivered 2× Substrate Mixture (Fluorogenic HDAC Substrate and co-factor (500 μM of Nicotinamide adenine dinucleotide (NAD^+) in all Sirt assay) in all reaction wells to initiate the reaction. Spin and shake. • d. Incubated for 1-2 hr. at 30° C. with seal. • e. Added Developer with Trichostatin A (or TMP269 or NAD^+) to stop the reaction and to generate fluorescent color. • f. Fluorescence was read (excitatory, 360; emission, 460) using the EnVision Multilabel Plate Reader (Perkin Elmer) • g. Endpoint reading was taken for analysis after the development reaches plateau. • V. Data Analysis: The percentages of enzyme activity (relative to DMSO controls) and IC50 values were calculated using the GraphPad Prism 4 program based on a sigmoidal dose-response equation.
(§3) The inhibitory activities of HDAC of compounds of the invention were determined using biochemical HDAC assays. Compounds were tested at the indicated doses in the biochemical assays of HDAC1, HDAC2, HDAC3, HDAC4, HDAC5, HDAC6, HDAC7, HDAC8, HDAC9, HDAC10, or HDAC11 enzyme. The curve fit and IC50 values were calculated using the GraphPad Prism 4 program based on a sigmoidal dose-response equation.
as §2, with “[…]” for “μM”, “equation. […]” for “equation.”

In assay [1] the target is T2, Complex of human HDAC3 and human NCOR2 (Homo sapiens, UniProt O15379).
T2 construct: full-length with a C-terminal His tag, MW=49.7 kDa; His tag (C); made in house; host or cells: baculovirus expression system
T2 sequence (O15379 whole entry): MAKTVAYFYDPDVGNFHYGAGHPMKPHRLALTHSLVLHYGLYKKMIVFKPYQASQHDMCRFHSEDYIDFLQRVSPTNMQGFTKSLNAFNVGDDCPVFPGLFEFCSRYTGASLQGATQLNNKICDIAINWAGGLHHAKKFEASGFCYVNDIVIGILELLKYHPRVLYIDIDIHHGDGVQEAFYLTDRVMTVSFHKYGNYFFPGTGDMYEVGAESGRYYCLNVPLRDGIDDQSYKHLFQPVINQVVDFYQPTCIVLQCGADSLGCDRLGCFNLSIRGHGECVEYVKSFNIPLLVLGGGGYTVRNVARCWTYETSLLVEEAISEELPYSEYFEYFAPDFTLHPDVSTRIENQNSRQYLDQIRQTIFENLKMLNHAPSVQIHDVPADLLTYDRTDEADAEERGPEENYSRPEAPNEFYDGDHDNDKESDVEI
T2 sequence (Q9Y618 395-489 partner limits assumed): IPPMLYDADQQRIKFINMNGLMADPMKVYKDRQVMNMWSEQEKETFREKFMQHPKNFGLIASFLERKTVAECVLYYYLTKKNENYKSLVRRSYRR
The experiment in a line: Biochemical HDAC enzymatic assay, HDAC3. Conditions: incubation time 10 min. Here is the method:
as §1
Complex of human HDAC3 (GenBank Accession No. NM_003883), full-length with a C-terminal His tag, MW=49.7 kDa, and human NCOR2 (amino acid 395-489) (GenBank Accession No. NM_006312), N-terminal GST tag, MW=37.6 kDa, was co-expressed in a baculovirus expression system.
as §2, §3
• I. Compound handling: Testing compounds were dissolved in 100% DMSO to a specific concentration. The serial dilution was conducted by epMotion 5070 in DMSO. • II. HDAC reaction buffer: 50 mM Tris-HCl, pH8.0, 137 mM NaCl, 2.7 mM KCl, and 1 mM MgCl2, Added fresh: 1 mg/ml BSA, 1% DMSO. • III. Substrate: Fluorogenic HDAC General Substrate for HDAC1, 2, 3, 6, 10, 11 ans Sirt1, 2 and 3: Arg-His-Lys-Lys(Ac); HDAC8 only substrate: Arg-His-Lys(Ac)-Lys(Ac); Class2A Substrate (HDAC4, 5, 7 and 9): Acetyl-Lys(trifluoroacetyl)-AMC; Sirt5 substrate: Ac-Lys(succinyl)-AMC. • IV. General Reaction Procedure: (Standard IC50 determination) • a. Delivered 2× enzyme in wells of reaction plate except No Enzyme (No En) control wells. Add buffer in No En wells. • b. Delivered compounds in 100% DMSO into the enzyme mixture by Acoustic technology (Echo550; nanoliter range). Spin down and pre-incubation. • c. […]

In the next assay the target is T3, Human HDAC1 (Homo sapiens, UniProt Q13547).
T3 construct: full-length with a C-terminal His-tag and a C-terminal FLAG-tag; His-tag (C); FLAG-tag (C); made in house; host or cells: baculovirus expression system
T3 sequence (Q13547 whole entry): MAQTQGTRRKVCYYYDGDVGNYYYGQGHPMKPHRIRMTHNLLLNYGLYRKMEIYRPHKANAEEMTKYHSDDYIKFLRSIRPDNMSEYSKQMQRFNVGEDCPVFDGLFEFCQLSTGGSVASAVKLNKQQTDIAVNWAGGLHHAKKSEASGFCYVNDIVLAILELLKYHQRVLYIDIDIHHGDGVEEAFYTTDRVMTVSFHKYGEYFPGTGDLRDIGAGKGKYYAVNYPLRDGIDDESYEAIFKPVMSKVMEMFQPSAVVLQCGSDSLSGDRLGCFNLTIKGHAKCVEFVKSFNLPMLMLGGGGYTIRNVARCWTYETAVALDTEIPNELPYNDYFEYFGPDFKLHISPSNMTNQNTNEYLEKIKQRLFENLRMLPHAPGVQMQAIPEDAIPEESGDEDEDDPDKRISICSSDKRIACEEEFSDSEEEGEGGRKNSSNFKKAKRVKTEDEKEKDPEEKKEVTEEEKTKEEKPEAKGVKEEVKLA
In words: Biochemical HDAC enzymatic assay, HDAC1. Conditions: incubation time 120 min. Here is the method: as §1
Human HDAC1 (GenBank Accession No. NM_004964), full-length with a C-terminal His-tag and a C-terminal FLAG-tag, MW=56 kDa, was expressed in a baculovirus expression system.
as §2, §3
as §2, with “[…]” for “μM”, “equation. […]” for “equation.”

Structures are written as SMILES.

T1 sequence (Q92769 whole entry): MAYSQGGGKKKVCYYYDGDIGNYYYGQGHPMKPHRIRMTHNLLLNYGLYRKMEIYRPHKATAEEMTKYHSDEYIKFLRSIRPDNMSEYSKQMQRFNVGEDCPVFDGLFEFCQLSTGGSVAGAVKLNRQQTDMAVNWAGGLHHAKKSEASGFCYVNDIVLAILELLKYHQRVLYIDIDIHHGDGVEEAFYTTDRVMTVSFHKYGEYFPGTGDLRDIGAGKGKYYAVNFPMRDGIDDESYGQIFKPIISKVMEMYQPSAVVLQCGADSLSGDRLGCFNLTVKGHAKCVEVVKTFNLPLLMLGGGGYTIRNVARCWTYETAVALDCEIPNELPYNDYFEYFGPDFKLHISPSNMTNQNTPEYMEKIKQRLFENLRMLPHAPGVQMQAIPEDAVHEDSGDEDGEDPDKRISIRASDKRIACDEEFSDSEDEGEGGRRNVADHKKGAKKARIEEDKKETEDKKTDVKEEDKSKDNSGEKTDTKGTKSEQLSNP

Turning to `CN1CCC2(CC1)CN(c1ccc(C(=O)Nc3cc(-c4cccs4)ccc3N)cn1)C(=O)O2` [Example 4, N-(2-amino-5-(thiophen-2-yl)phenyl)-6-(8-methyl-2-oxo-1-oxa-3,8-diazaspiro[4.5]decan-3-yl)nicotinamide], the IC50 (in general, the point on the concentration scale where inhibition reaches its midpoint) at Human HDAC2 (Table 1) was found to be 0.064 µM; in assay [1] (Table 1), 17.4 µM; against Human HDAC1 (Table 1), 0.007 µM.

In the case of `O=C(NO)c1ccc(CN2C(=O)c3ccccc3C23OCCO3)cc1` [Compound Example 8, N-hydroxy-4-((3-oxospiro[isoindoline-1,2′-[1,3]dioxolan]-2-yl)methyl)benzamide], the values for the IC50 (on Human HDAC2 (Table 2); in assay [1] (Table 2); on Human HDAC1 (Table 2)) were > 10 µM, > 10 µM and 8 µM, respectively.

On to `Nc1ccc(-c2cccs2)cc1NC(=O)c1ccc(CN2C(=O)CCCC23CNC3)cc1` [Example 1, N-(2-amino-5-(thiophen-2-yl)phenyl)-4-((6-oxo-2,5-diazaspiro[3.5]nonan-5-yl)methyl)benzamide], for which the results for the IC50 (at Human HDAC2 (Table 1); in assay [1] (Table 1); against Human HDAC1 (Table 1)) were 0.06 µM, 13 µM and 0.006 µM, respectively.

Take `Nc1cc(F)ccc1NC(=O)c1ccc(CN2C(=O)CCCC23CNC3)cc1` [Example 3, N-(2-amino-4-fluorophenyl)-4-((6-oxo-2,5-diazaspiro[3.5]nonan-5-yl)methyl)benzamide]: the IC50 at Human HDAC2 (Table 1) amounted to 11.8 µM; in assay [1] (Table 1), 1.9 µM; on Human HDAC1 (Table 1), 20 µM.

As for `O=C(NO)c1ccc(CN2C(=O)c3ccccc3C23CCN(C2CC2)CC3)cc1` [Compound Example 12, 4-((1′-cyclopropyl-3-oxospiro[isoindoline-1,4′-piperidin]-2-yl)methyl)-N-hydroxybenzamide], the figures for the concentration for half-maximal inhibition (IC50) (against Human HDAC2 (Table 2); in assay [1] (Table 2); on Human HDAC1 (Table 2)) were > 10 µM, 9.26 µM and > 10 µM, respectively.

On to `CN(C)C(=O)N1CCC2(CC1)c1ccccc1C(=O)N2Cc1ccc(C(=O)NO)cc1` [Compound Example 11, 2-(4-(hydroxycarbamoyl)benzyl)-N,N-dimethyl-3-oxospiro[isoindoline-1,4′-piperidine]-1′-carboxamide], for which the IC50 (at Human HDAC2 (Table 2); in assay [1] (Table 2); at Human HDAC1 (Table 2)) was > 10 µM in each case.

As to `Nc1ccc(-c2ccc(F)cc2)cc1NC(=O)c1ccc(N2CC3(CCOCC3)OC2=O)nc1` [Example 5, N-(4-amino-4′-fluoro-[1,1′-biphenyl]-3-yl)-6-(2-oxo-1,8-dioxa-3-azaspiro[4.5]decan-3-yl)nicotinamide], the IC50 was 0.115 µM at Human HDAC2 (Table 1), > 20 µM in assay [1] (Table 1) and 0.023 µM against Human HDAC1 (Table 1).

For the compound `Nc1ccc(-c2cccs2)cc1NC(=O)c1ccc(CN2C(=O)CCC23CCNCC3)cc1` [Example 2, N-(2-amino-5-(thiophen-2-yl)phenyl)-4-((2-oxo-1,8-diazaspiro[4.5]decan-1-yl)methyl)benzamide], the IC50 at Human HDAC2 (Table 1) is 0.146 µM; in assay [1] (Table 1) it was > 20 µM; on Human HDAC1 (Table 1), 0.014 µM.

With `O=C(NO)c1ccc(CN2C(=O)C3(CCOC3)c3ccccc32)cc1` (stereo not drawn) [Compound Example 9], the IC50 at Human HDAC2 (Table 2) worked out at 17.2 µM; in assay [1] (Table 2), 21 µM; against Human HDAC1 (Table 2), 9.1 µM.

For `O=C(NO)c1ccc(CN2C(=O)c3ccccc3C23CCNCC3)cc1` [Compound Example 10, N-hydroxy-4-((3-oxospiro[isoindoline-1,4′-piperidin]-2-yl)methyl)benzamide], the results for the concentration for half-maximal inhibition (IC50) (at Human HDAC2 (Table 2); in assay [1] (Table 2); at Human HDAC1 (Table 2)) were > 10 µM, 7 µM and 6 µM, respectively.

With `Nc1ccc(-c2cccs2)cc1NC(=O)c1ccc(N2CC3(CCNCC3)CCC2=O)nc1` [Example 6, N-(2-amino-5-(thiophen-2-yl)phenyl)-6-(3-oxo-2,9-diazaspiro[5.5]undecan-2-yl)nicotinamide], the IC50 on Human HDAC2 (Table 1) is 0.61 µM; in assay [1] (Table 1), > 20 µM; on Human HDAC1 (Table 1), 0.085 µM.
